Source: patent US20240174670A1, “4-AMINO-6-OXO-PYRIDAZINE DERIVATIVES MODULATING NLRP3” (JANSSEN PHARMACEUTICA NV, priority 2021, published 2024)

What was measured:
IL-1β = assay: PBMC assay, IL-1β release after LPS stimulation; format: cell-based; conditions: human PBMCs, 30 min preincubation, 100 ng/ml LPS for 6 hrs, supernatant, MSD technology, read-out: IL1β AC50
Description: The activity of a compound according to the present invention can be assessed by in vitro methods.
(§1) Peripheral venous blood was collected from healthy individuals and human peripheral blood mononuclear cells (PBMCs) were isolated from blood by Ficoll-Histopaque (Sigma-Aldrich, A0561) density gradient centrifugation. After isolation, PBMCs were stored in liquid nitrogen for later use. Upon thawing, PBMC cell viability was determined in growth medium (RPMI media supplemented with 10% fetal bovine serum, 1% Pen-Strep and 1% L-glutamine). Compounds were spotted in a 1:3 serial dilution in DMSO and diluted to the final concentration in 30 μl medium in 96 well plates (Falcon, 353072). PBMCs were added at a density of 7.5×10^4 cells per well and incubated for 30 min in a 5% CO2 incubator at 37 ° C. LPS stimulation was performed by addition of 100 ng/ml LPS (final concentration, Invivogen, tlrl-smlps) for 6 hrs followed by collection of cellular supernatant and the analysis of IL-1β[…] and TNF cytokines levels (uμ) via MSD technology according to manufacturers' guidelines (MSD, K151A0H).
(§2) IC50 and AC50 values (for IL-1β) and EC50 and AC50 values (TNF) were obtained on compounds of the invention/examples, and the AC50 values are depicted in the following table: […]

TNF = assay: PBMC assay, TNF release after LPS stimulation; format: cell-based; conditions: human PBMCs, 30 min preincubation, 100 ng/ml LPS for 6 hrs, supernatant, MSD technology
Description: as §1, §2

## CC(C)c1nn(CC(=O)Nc2ccc3nncn3c2)c(=O)cc1N1CCC(Oc2ccccn2)C1 (centres unmarked) [Compound 59]
IL-1β
  AC50: 9.92 µM
TNF
  AC50: 16.1 µM

## CC(C)c1nn(CC(=O)Nc2ccc3nncn3c2)c(=O)cc1N1CCC(F)(F)C1 [Compound 13]
IL-1β
  AC50: 0.66 µM
TNF
  AC50: > 10 µM

## CC(C)CN(C)c1cc(=O)n(CC(=O)Nc2ccc3nncn3c2)nc1C(C)C [Compound 47]
IL-1β
  AC50: 13.8 µM
TNF
  AC50: > 20 µM

## CC(C)c1nn(CC(=O)Nc2ccc3nncn3c2)c(=O)cc1N1CCC2(C1)CC2(F)F (centres unmarked) [Compound 58]
IL-1β
  AC50: 0.89 µM
TNF
  AC50: > 20 µM

## CC(C)c1nn(CC(=O)Nc2ccc3nncn3c2)c(=O)cc1NC1CC1 [Compound 66]
IL-1β
  AC50: > 20 µM
TNF
  AC50: > 20 µM

## CC(C)c1nn(CC(=O)Nc2ccc3nncn3c2)c(=O)cc1N1CC[C@H](N(C)C)C1 [Compound 28]
IL-1β
  AC50: > 15 µM
TNF
  AC50: > 10 µM

## CC(C)c1nn(CC(=O)Nc2ccc3nncn3c2)c(=O)cc1NCC(F)(F)F [Compound 4]
IL-1β
  AC50: > 15 µM
TNF
  AC50: > 10 µM

## CC(C)c1nn(CC(=O)Nc2ccc3nncn3c2)c(=O)cc1N1CCCC1Cc1ccccn1 (centres unmarked) [Compound 63]
IL-1β
  AC50: 1.28 µM
TNF
  AC50: > 20 µM

## CC(C)c1nn(CC(=O)Nc2ccc3nncn3c2)c(=O)cc1N1CC[C@H](C)C1 [Compound 51]
IL-1β
  AC50: 0.42 µM
TNF
  AC50: > 20 µM

## CC(C)c1nn(CC(=O)Nc2ccc3nncn3c2)c(=O)cc1N(C)C1CC1 [Compound 67]
IL-1β
  AC50: 10.2 µM
TNF
  AC50: > 20 µM

## CC(C)c1nn(CC(=O)Nc2ccc3nncn3c2)c(=O)cc1NCC1CC1 [Compound 29, 2-[4-(cyclopropylmethylamino)-3-isopropyl-6-oxo-pyridazin-1-yl]-N-([1,2,4]triazolo[4,3-a]pyridin-6-yl)acetamide]
IL-1β
  AC50: 1.53 µM
TNF
  AC50: > 10 µM

## CC(C)c1nn(CC(=O)Nc2ccc3nncn3c2)c(=O)cc1N1CCOCC1 [Compound 6]
IL-1β
  AC50: > 15 µM
TNF
  AC50: > 10 µM

## CC(C)c1nn(CC(=O)Nc2ccc3nncn3c2)c(=O)cc1Nc1cc([C@H]2C[C@H]2C)on1 [Compound 43]
IL-1β
  AC50: > 20 µM
TNF
  AC50: > 20 µM

## CC(C)c1nn(CC(=O)Nc2ccc3nncn3c2)c(=O)cc1N1CCN(C)CC1 [Compound 48]
IL-1β
  AC50: > 20 µM
TNF
  AC50: > 20 µM

## CC(C)c1nn(CC(=O)Nc2ccc3nncn3c2)c(=O)cc1N1CC2(C1)CC(F)(F)C2 [Compound 53]
IL-1β
  AC50: > 20 µM
TNF
  AC50: > 20 µM

## CC(C)c1nn(CC(=O)Nc2ccc3nncn3c2)c(=O)cc1N1CCC(F)(F)CC1 [Compound 12]
IL-1β
  AC50: > 15 µM
TNF
  AC50: > 10 µM

## CC1CC(C)CN(c2cc(=O)n(CC(=O)Nc3ccc4nncn4c3)nc2C(C)C)C1 (centres unmarked) [Compound 56]
IL-1β
  AC50: 0.64 µM
TNF
  AC50: 16 µM

## CC(C)c1nn(CC(=O)Nc2ccc3nncn3c2)c(=O)cc1N1CCC[C@@H]1C [Compound 18]
IL-1β
  AC50: > 15 µM
TNF
  AC50: > 10 µM

## CC(C)c1nn(CC(=O)Nc2ccc3nncn3c2)c(=O)cc1N1CC(CC(F)F)C1 [Compound 35]
IL-1β
  AC50: 4.36 µM
TNF
  AC50: > 20 µM

## CC(C)c1nn(CC(=O)Nc2ccc3nncn3c2)c(=O)cc1Nc1cc(CC2CC2)on1 [Compound 44]
IL-1β
  AC50: > 20 µM
TNF
  AC50: > 20 µM

## CC(C)c1nn(CC(=O)Nc2ccc3nncn3c2)c(=O)cc1N1CCC(Cc2ccncc2)C1 (centres unmarked) [Compound 57]
IL-1β
  AC50: > 20 µM
TNF
  AC50: > 20 µM

## CC(C)c1nn(CC(=O)Nc2ccc3nncn3c2)c(=O)cc1Nc1cccc(C2CC2)n1 [Compound 38, N-([1,2,4]triazolo[4,3-a]pyridin-6-yl)-2-(4-((6-cyclopropylpyridin-2-yl)amino)-3-isopropyl-6-oxopyridazin-1(6H)-yl)acetamide]
IL-1β
  AC50: > 4 µM
TNF
  AC50: > 4 µM

## CC(C)c1nn(CC(=O)Nc2ccc3nncn3c2)c(=O)cc1N1CCC(C)(O)CC1 [Compound 36]
IL-1β
  AC50: > 20 µM
TNF
  AC50: > 20 µM

## CC(C)c1nn(CC(=O)Nc2ccc3nncn3c2)c(=O)cc1N1CCC[C@H]1CO (single isomer, unassigned) [Compound 11]
IL-1β
  AC50: > 15 µM
TNF
  AC50: > 10 µM

## CC(C)c1nn(CC(=O)Nc2ccc3nncn3c2)c(=O)cc1N1Cc2cc(F)cnc2C1 [Compound 34]
IL-1β
  AC50: > 20 µM
TNF
  AC50: > 20 µM
